For the experiment, the target named is T1, CK1α (Homo sapiens, UniProt P48729).
T1 construct: HEK293 clonal lines with CRISPR KI HiBiT tag on CSNK1A1
T1 sequence (P48729 whole entry): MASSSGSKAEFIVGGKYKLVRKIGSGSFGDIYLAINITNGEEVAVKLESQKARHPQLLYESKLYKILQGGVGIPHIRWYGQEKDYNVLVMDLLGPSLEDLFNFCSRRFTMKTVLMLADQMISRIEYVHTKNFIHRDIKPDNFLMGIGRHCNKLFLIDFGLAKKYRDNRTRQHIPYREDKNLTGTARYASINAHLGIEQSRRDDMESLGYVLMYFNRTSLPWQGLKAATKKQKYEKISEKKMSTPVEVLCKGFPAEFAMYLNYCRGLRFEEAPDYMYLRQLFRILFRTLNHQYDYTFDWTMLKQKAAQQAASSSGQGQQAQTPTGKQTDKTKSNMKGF
T1 sequence (Q96SW2 whole entry, further chain): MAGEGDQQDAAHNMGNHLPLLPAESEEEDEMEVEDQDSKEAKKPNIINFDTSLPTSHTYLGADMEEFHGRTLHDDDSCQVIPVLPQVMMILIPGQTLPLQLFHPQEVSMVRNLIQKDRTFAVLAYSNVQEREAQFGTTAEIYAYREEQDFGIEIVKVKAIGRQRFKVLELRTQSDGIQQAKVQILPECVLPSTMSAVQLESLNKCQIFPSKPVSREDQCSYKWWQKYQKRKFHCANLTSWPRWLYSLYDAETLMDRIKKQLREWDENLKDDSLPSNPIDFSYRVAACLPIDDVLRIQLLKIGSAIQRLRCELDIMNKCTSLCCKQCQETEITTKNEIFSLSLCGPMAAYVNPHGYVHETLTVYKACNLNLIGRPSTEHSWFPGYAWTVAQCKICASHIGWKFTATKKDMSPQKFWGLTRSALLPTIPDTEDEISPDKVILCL
T1 sequence (Q16531 2-1140 partner limits assumed): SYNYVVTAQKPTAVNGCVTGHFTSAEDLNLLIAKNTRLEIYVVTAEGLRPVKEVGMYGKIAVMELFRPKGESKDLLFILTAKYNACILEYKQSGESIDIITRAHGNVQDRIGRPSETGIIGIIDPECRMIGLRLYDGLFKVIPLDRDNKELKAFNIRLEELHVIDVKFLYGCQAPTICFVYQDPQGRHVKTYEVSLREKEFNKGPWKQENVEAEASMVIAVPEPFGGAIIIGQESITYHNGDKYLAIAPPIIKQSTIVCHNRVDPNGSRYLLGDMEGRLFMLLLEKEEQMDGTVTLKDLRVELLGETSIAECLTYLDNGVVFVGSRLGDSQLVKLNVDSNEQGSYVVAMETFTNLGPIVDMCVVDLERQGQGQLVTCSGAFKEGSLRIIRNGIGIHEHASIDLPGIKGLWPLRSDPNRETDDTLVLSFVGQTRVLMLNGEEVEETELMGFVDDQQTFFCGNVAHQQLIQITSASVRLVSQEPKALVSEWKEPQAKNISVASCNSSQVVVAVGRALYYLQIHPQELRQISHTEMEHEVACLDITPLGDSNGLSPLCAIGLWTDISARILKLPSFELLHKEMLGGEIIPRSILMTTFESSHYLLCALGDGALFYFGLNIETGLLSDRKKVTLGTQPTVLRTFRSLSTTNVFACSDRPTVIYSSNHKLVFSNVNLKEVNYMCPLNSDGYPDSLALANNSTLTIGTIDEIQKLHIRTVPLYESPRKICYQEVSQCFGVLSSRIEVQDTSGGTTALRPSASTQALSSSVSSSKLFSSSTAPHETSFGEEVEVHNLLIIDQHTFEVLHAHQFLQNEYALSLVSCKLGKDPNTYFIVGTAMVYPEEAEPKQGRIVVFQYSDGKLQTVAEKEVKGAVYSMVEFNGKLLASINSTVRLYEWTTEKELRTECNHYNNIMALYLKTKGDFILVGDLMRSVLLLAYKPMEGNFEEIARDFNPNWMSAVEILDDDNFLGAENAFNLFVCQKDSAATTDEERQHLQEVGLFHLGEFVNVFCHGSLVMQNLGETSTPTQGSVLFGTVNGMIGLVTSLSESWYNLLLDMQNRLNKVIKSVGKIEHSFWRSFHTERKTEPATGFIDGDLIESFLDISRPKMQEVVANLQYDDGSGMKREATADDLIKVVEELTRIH
Description: CK1α NanoBit Assay (HiBiT-tagged CSNK1A1, HEK293 clonal lines). Conditions: HEK293 HiBiT-CSNK1A1/LgBiT cells, 24 h incubation. It is filed as cell-based. The method, then: HEK293 clonal lines with CRISPR KI HiBiT tag on CSNK1A1 and stably expressing LgBiT protein were obtained from Promega (Madison, WI). […] Cells were incubated at 37° C., 5% CO2 for 24 hours and then signal was read on a Pherastar FSX using “LUM plus” optic module.
Data analysis was performed in Scinamic (Scinamic, Cambridge, MA). Luminescence response (R) was calculated by the formula: response=100*(S−N)/(P−N) where S is the signal of the well, N and P the mean negative and positive control values respectively of the same plate.
DC50 data are reported in Table 2 for compounds in Table 1. In Table 2 below, According to the code, A represents a DC50 value of ≤0.1 μM, B represents a DC50 value>0.1 μM and ≤1 μM, C represents an DC50 value>1 μM.
In general terms: With HiBiT, luminescence reflects the tagged protein that the partner subunit can reach.
`CC1(C)CCN(C(=O)Nc2ccc3c(c2)CN(C2CCC(=O)NC2=O)C3=O)c2ccccc21` (centres unmarked) [Compound 143] displayed a DC50 of less than 0.1 µM. To `O=C1CCC(N2Cc3cc(NC(=O)N4CCC5(CC5)C4)ccc3C2=O)C(=O)N1` (centres unmarked) [Compound 274] belongs 0.1 to 1 µM. Under `O=C1CCC(N2Cc3cc(NC(=O)N4c5cccc(C(F)(F)F)c5CC45COC5)ccc3C2=O)C(=O)N1` (centres unmarked) [Compound 296, N-(2-(2,6-dioxopiperidin-3-yl)-1-oxoisoindolin-5-yl)-4-(trifluoromethyl)spiro[indoline-2,3′-oxetane]-1-carboxamide] stands less than 0.1 µM; under `O=C1CCC(N2Cc3cc(NC(=O)N4CCCc5ccc(C(F)(F)F)cc54)ccc3C2=O)C(=O)N1` (centres unmarked) [Compound 114], less than 0.1 µM; under `O=C1CCC(N2Cc3cc(NC(=O)N4CCN(c5cnccn5)CC4)ccc3C2=O)C(=O)N1` (centres unmarked) [Compound 254], more than 1 µM.

In turn, `O=C1CCC(N2Cc3cc(NC(=O)N4CCc5cnccc54)ccc3C2=O)C(=O)N1` (centres unmarked) [Compound 110, N-(2-(2,6-dioxopiperidin-3-yl)-1-oxoisoindolin-5-yl)-2,3-dihydro-1H-pyrrolo[3,2-c]pyridine-1-carboxamide] came in with a DC50 of 0.1 to 1 µM. To `O=C1CCC(N2Cc3cc(NC(=O)N4CCc5ccccc5C4c4ccccc4)ccc3C2=O)C(=O)N1` (centres unmarked) [Compound 211] belongs less than 0.1 µM.

Turning to `O=C1CCC(N2Cc3cc(NC(=O)N4CCCC4c4ccccn4)ccc3C2=O)C(=O)N1` (centres unmarked) [Compound 270], the DC50 lay in the range of 0.1 to 1 µM. To `O=C1CCC(N2Cc3cc(NC(=O)N4C5CCCC4C5)ccc3C2=O)C(=O)N1` (centres unmarked) [Compound 218] belongs less than 0.1 µM. Molecule `O=C1CCC(N2Cc3cc(NC(=O)N4CCC(C(F)(F)F)c5ccccc54)ccc3C2=O)C(=O)N1` (centres unmarked) [Compound 127] yielded a DC50 of less than 0.1 µM. To `O=C1CCC(N2Cc3cc(NC(=O)N4CC5[C@@H](CCN5c5ccccc5)C4)ccc3C2=O)C(=O)N1` (some centres unmarked) [Compound 236] belongs 0.1 to 1 µM; to `O=C1CCC(N2Cc3cc(NC(=O)N4CC(c5ccc(F)cc5)C4)ccc3C2=O)C(=O)N1` (centres unmarked) [Compound 269], less than 0.1 µM; to `O=C1CCC(N2Cc3cc(NC(=O)N4CCCc5c(F)cccc54)ccc3C2=O)C(=O)N1` (centres unmarked) [Compound 131], 0.1 to 1 µM. The molecule `C[C@@H]1[C@H]2CN(C(=O)Nc3ccc4c(c3)CN(C3CCC(=O)NC3=O)C4=O)C[C@@H]12` (some centres unmarked) [Compound 273] displayed a DC50 of less than 0.1 µM. To `O=C1CCC(N2Cc3cc(NC(=O)N4CCN(c5cccnc5)CC4)ccc3C2=O)C(=O)N1` (centres unmarked) [Compound 249] belongs more than 1 µM; to `O=C1CCC(N2Cc3cc(NC(=O)N4CCCc5cccc(Cl)c54)ccc3C2=O)C(=O)N1` (centres unmarked) [Compound 158], 0.1 to 1 µM; to `Cc1ccc(C2CCCN2C(=O)Nc2ccc3c(c2)CN(C2CCC(=O)NC2=O)C3=O)cn1` (centres unmarked) [Compound 224], 0.1 to 1 µM. For the molecule `Cc1ccc2c(c1)CN(C(=O)Nc1ccc3c(c1)CN(C1CCC(=O)NC1=O)C3=O)C2` (centres unmarked) [Compound 175], the DC50 was less than 0.1 µM. To `CC(C)(C)c1ccc2c(c1)CCN(C(=O)Nc1ccc3c(c1)CN(C1CCC(=O)NC1=O)C3=O)C2` (centres unmarked) [Compound 194] belongs less than 0.1 µM. Regarding `O=C1CCC(N2Cc3cc(NC(=O)N4CCC5(CCC5)C4)ccc3C2=O)C(=O)N1` (centres unmarked) [Compound 278], the DC50 is less than 0.1 µM. To `C[C@H]1c2ccccc2CN1C(=O)Nc1ccc2c(c1)CN(C1CCC(=O)NC1=O)C2=O` (some centres unmarked) [Compound 167] belongs less than 0.1 µM; to `Cc1ccccc1N1CCN(C(=O)Nc2ccc3c(c2)CN(C2CCC(=O)NC2=O)C3=O)CC1` (centres unmarked) [Compound 261], less than 0.1 µM. For the molecule `N#Cc1ccc(C2CN(C(=O)Nc3ccc4c(c3)CN(C3CCC(=O)NC3=O)C4=O)C2)cc1` (centres unmarked) [Compound 244], the DC50 is 0.1 to 1 µM. Under `CC(C)c1cccc2c1N(C(=O)Nc1ccc3c(c1)CN(C1CCC(=O)NC1=O)C3=O)CCC2` (centres unmarked) [Compound 155] stands 0.1 to 1 µM; under `Cn1ccc(C2CCCN(C(=O)Nc3ccc4c(c3)CN(C3CCC(=O)NC3=O)C4=O)C2)n1` (centres unmarked) [Compound 267], 0.1 to 1 µM; under `O=C1CCC(N2Cc3cc(NC(=O)N4CCC5CC54)ccc3C2=O)C(=O)N1` (centres unmarked) [Compound 221], 0.1 to 1 µM. To `COc1cccc2c1CN(C(=O)Nc1ccc3c(c1)CN(C1CCC(=O)NC1=O)C3=O)C2` (centres unmarked) [Compound 134] belongs less than 0.1 µM. To `N#Cc1cccc2c1CCN(C(=O)Nc1ccc3c(c1)CN(C1CCC(=O)NC1=O)C3=O)C2` (centres unmarked) [Compound 176] belongs 0.1 to 1 µM; to `O=C1CCC(N2Cc3cc(NC(=O)N4Cc5ccccc5C5(CC5)C4)ccc3C2=O)C(=O)N1` (centres unmarked) [Compound 136], less than 0.1 µM; to `CC1Cc2ccccc2C(C)N1C(=O)Nc1ccc2c(c1)CN(C1CCC(=O)NC1=O)C2=O` (centres unmarked) [Compound 166], less than 0.1 µM. On to `O=C1CCC(N2Cc3cc(NC(=O)N4CC(n5cccn5)Cc5ccccc54)ccc3C2=O)C(=O)N1` (centres unmarked) [Compound 161], for which the DC50 was in the range of 0.1 to 1 µM. To `O=C1CCC(N2Cc3cc(NC(=O)N4CCCc5ccc(C(F)F)cc54)ccc3C2=O)C(=O)N1` (centres unmarked) [Compound 129] belongs less than 0.1 µM; to `O=C1CCC(N2Cc3cc(NC(=O)N4Cc5cccc(F)c5C4)ccc3C2=O)C(=O)N1` (centres unmarked) [Compound 202], less than 0.1 µM; to `O=C1CCC(N2Cc3cc(NC(=O)N4CCc5c(F)cccc5C4)ccc3C2=O)C(=O)N1` (centres unmarked) [Compound 184], less than 0.1 µM. Under `O=C1CCC(N2Cc3cc(NC(=O)N4CC(c5cccc(F)c5)C4)ccc3C2=O)C(=O)N1` (centres unmarked) [Compound 238] stands 0.1 to 1 µM; under `CCC1c2ccccc2CN1C(=O)Nc1ccc2c(c1)CN(C1CCC(=O)NC1=O)C2=O` (centres unmarked) [Compound 208], less than 0.1 µM.

`O=C1CCC(N2Cc3cc(NC(=O)N4CC(c5ccc(Cl)cc5)C4)ccc3C2=O)C(=O)N1` (centres unmarked) [Compound 231] returned a DC50 of less than 0.1 µM. `O=C1CCC(N2Cc3cc(NC(=O)N4CCC(c5nccs5)C4)ccc3C2=O)C(=O)N1` (centres unmarked) [Compound 247] yielded a DC50 of 0.1 to 1 µM. To `O=C1CCC(N2Cc3cc(NC(=O)N4CC(c5cccc(Cl)c5)C4)ccc3C2=O)C(=O)N1` (centres unmarked) [Compound 268] belongs less than 0.1 µM. In turn, `C[C@H]1c2ccccc2[C@H](C)N1C(=O)Nc1ccc2c(c1)CN(C1CCC(=O)NC1=O)C2=O` (some centres unmarked) [Compound 172] showed a DC50 of less than 0.1 µM.

With `Cc1ccc2c(c1)N(C(=O)Nc1ccc3c(c1)CN(C1CCC(=O)NC1=O)C3=O)CCC2` (centres unmarked) [Compound 149], the DC50 is 0.1 to 1 µM. To `O=C1CCC(N2Cc3cc(NC(=O)N4C[C@@H]5[C@H]6CC[C@H](C6)[C@@H]5C4)ccc3C2=O)C(=O)N1` (some centres unmarked) [Compound 220] belongs less than 0.1 µM; to `O=C1CCC(N2Cc3cc(NC(=O)N4Cc5cccc(Cl)c5C4)ccc3C2=O)C(=O)N1` (centres unmarked) [Compound 182], less than 0.1 µM. `O=C1CCC(N2Cc3cc(NC(=O)N4CCCc5ncccc54)ccc3C2=O)C(=O)N1` (centres unmarked) [Compound 145] displayed a DC50 of more than 1 µM.

Turning to `CC(C)(C)C1Cc2ccccc2N(C(=O)Nc2ccc3c(c2)CN(C2CCC(=O)NC2=O)C3=O)C1` (centres unmarked) [Compound 154], the DC50 was less than 0.1 µM.

Regarding `O=C1CCC(N2Cc3cc(NC(=O)N4CCCC(O)C4)ccc3C2=O)C(=O)N1` (centres unmarked) [Compound 262], the DC50 is more than 1 µM. Under `CC1CCCN(C(=O)Nc2ccc3c(c2)CN(C2CCC(=O)NC2=O)C3=O)C1` (centres unmarked) [Compound 280] stands 0.1 to 1 µM; under `CC1(C)Cc2ccccc2N(C(=O)Nc2ccc3c(c2)CN(C2CCC(=O)NC2=O)C3=O)C1` (centres unmarked) [Compound 165], less than 0.1 µM. To `Cc1cccc2c1N(C(=O)Nc1ccc3c(c1)CN(C1CCC(=O)NC1=O)C3=O)CCC2` (centres unmarked) [Compound 139] belongs 0.1 to 1 µM; to `CC1(C)c2ccccc2CCN1C(=O)Nc1ccc2c(c1)CN(C1CCC(=O)NC1=O)C2=O` (centres unmarked) [Compound 156], more than 1 µM. Take `O=C1CCC(N2Cc3cc(NC(=O)N4CCCc5ccc(F)cc54)ccc3C2=O)C(=O)N1` (centres unmarked) [Compound 116]: the DC50 was less than 0.1 µM. Under `O=C1CCC(N2Cc3cc(NC(=O)N4CC(c5cccc(C(F)(F)F)c5)C4)ccc3C2=O)C(=O)N1` (centres unmarked) [Compound 241] stands 0.1 to 1 µM.

The molecule `CC1CCN(C(=O)Nc2ccc3c(c2)CN(C2CCC(=O)NC2=O)C3=O)CC1` (centres unmarked) [Compound 281] gave a DC50 of 0.1 to 1 µM. `O=C1CCC(N2Cc3cc(NC(=O)N4CCCCC4c4ccccc4)ccc3C2=O)C(=O)N1` (centres unmarked) [Compound 253] yielded a DC50 of less than 0.1 µM. Under `C[C@@H]1Cc2cc(F)ccc2N1C(=O)Nc1ccc2c(c1)CN(C1CCC(=O)NC1=O)C2=O` (stereo partly drawn) [Compound 363, (2R)—N-(2-(2,6-dioxopiperidin-3-yl)-1-oxoisoindolin-5-yl)-5-fluoro-2-methylindoline-1-carboxamide] stands less than 0.1 µM; under `O=C1CCC(N2Cc3cc(NC(=O)N4CCC(O)CC4)ccc3C2=O)C(=O)N1` (centres unmarked) [Compound 251], more than 1 µM. To `O=C1CCC(N2Cc3cc(NC(=O)N4CCc5cnccc5C4)ccc3C2=O)C(=O)N1` (centres unmarked) [Compound 207] belongs more than 1 µM; to `O=C1CCC(N2Cc3cc(NC(=O)N4CCCC5CC54)ccc3C2=O)C(=O)N1` (centres unmarked) [Compound 276], 0.1 to 1 µM. `CC1CCCCN1C(=O)Nc1ccc2c(c1)CN(C1CCC(=O)NC1=O)C2=O` (centres unmarked) [Compound 282] gave a DC50 of 0.1 to 1 µM. In turn, `O=C1CCC(N2Cc3cc(NC(=O)N4CCN(c5ncccn5)CC4)ccc3C2=O)C(=O)N1` (centres unmarked) [Compound 272] showed a DC50 of 0.1 to 1 µM.

For the molecule `CC1CN(c2ccccc2)CCN1C(=O)Nc1ccc2c(c1)CN(C1CCC(=O)NC1=O)C2=O` (centres unmarked) [Compound 257], the DC50 fell in the range of 0.1 to 1 µM. Under `Cc1cccc(N2CCN(C(=O)Nc3ccc4c(c3)CN(C3CCC(=O)NC3=O)C4=O)CC2)c1` (centres unmarked) [Compound 265] stands 0.1 to 1 µM.
